Several values for one entry are separate records, joined by “and”; a condition that tells them apart may be missing. Equal entries are not always repeated.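 How tested: cells in 96-well plates exposed to compound for 48 hours at five concentrations. GI50 is the concentration that inhibits growth by half. The concentration for full growth arrest is given as TGI.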
Key:
Assay in all cases: NCI anticancer screen, dose series, 48 h
[1] = tested on: OVCAR-3 ovarian
[2] = tested on: OVCAR-8 ovarian
[3] = tested on: SK-MEL-28 melanoma
[4] = tested on: MOLT-4 leukemia
[5] = tested on: TK-10 renal
[6] = tested on: UACC-62 melanoma
[7] = tested on: EKVX NSCLC
[8] = tested on: DU-145 prostate
[9] = tested on: U251 CNS
[10] = tested on: LOX IMVI melanoma

Row | SMILES | GI50 [1] | TGI [1] | GI50 [2] | TGI [2] | GI50 [3] | TGI [3] | GI50 [4] | TGI [4] [µM] | GI50 [5] | TGI [5] [µM] | GI50 [6] | TGI [6] | GI50 [7] | TGI [7] [µM] | GI50 [8] | TGI [8] | GI50 [9] | TGI [9] | GI50 [10] | TGI [10]
1 | CC1(C)N=C(N)N=C(N)N1c1cccc(CC(=O)Nc2ccccc2)c1 | 32.1 µM | > 100 µM | 76.8 µM | > 100 µM | 9.15 µM | 77 µM | 25.2 µM | > 100 | > 100 µM | > 100 | 8.3 µM | > 100 µM | > 100 µM | > 100 | 12.7 µM | > 100 µM | 4.96 µM | > 100 µM | 4.41 µM | > 100 µM
2 | C=C(C)[C@@H]1CC[C@]2(C(=O)OC)CC[C@]3(C)[C@H](CC[C@@H]4[C@@]5(C)CC/C(=N\OCCC(=NCCC#N)NOCCC#N)C(C)(C)[C@@H]5CC[C@]43C)[C@@H]12 | 5.17 µM | 15.8 µM | 9.66 µM | > 50 µM | 17.1 µM | > 50 µM | 2.52 µM | 13 | 13.8 µM | > 50 | 2.32 µM | 12.6 µM | 4.77 µM | > 50 | 13.4 µM | > 50 µM | 4.3 µM | 12.4 µM | 4.32 µM | 10.4 µM
3 | Cc1n[nH]c(C)c1-c1c(C)n[nH]c1C | 1.6 µM | 3.05 µM | 2.09 µM | 9.79 µM | 1.8 µM | 3.49 µM | 2.24 µM | > 27.3 | 2.89 µM | 7.2 | 1.56 µM | 3.42 µM | 1.93 µM | 4.96 | 1.99 µM | 4.13 µM | 1.64 µM | 3.76 µM | 1.57 µM | 3.06 µM
4 | CN(C)CCCn1c2c(c3ccc(N4CCNCC4)cc3c1=O)C(=O)c1ccccc1-2 | 1.05 µM | 3.07 µM | 0.403 µM | 1.99 µM | 1.53 µM | 3.33 µM | 0.0979 µM | 0.922 | 1.33 µM | 4.41 | 1.03 µM | 2.52 µM | 1.18 µM | 2.93 | 0.329 µM | 1.65 µM | 0.639 µM | 2.31 µM | 0.145 µM | 0.481 µM
5 | N#CCC1CCN(c2nc(Nc3ccc(N4CCC(O)CC4)cc3)c3c(=O)[nH]ncc3n2)CC1 | – | > 100 µM | 8.08 µM | > 100 µM | 1.2 µM | > 100 µM | 0.652 µM | > 100 | 0.306 µM | > 100 | > 100 µM | > 100 µM | 1.85 µM | > 100 | 0.547 µM | > 100 µM | 1.03 µM | > 100 µM | 0.489 µM | > 100 µM
6 | CC1SC(c2ccc(OCc3ccccc3)cc2)N(NC(=O)C(O)(c2ccccc2)c2ccccc2)C1=O (configuration not stated) | 2.36 µM | 6.1 µM | 12.7 µM | 38.6 µM | 4.44 µM | 16.3 µM | 2.02 µM | 5.58 | 2.57 µM | 14.3 | 3.69 µM | 16 µM | 5.49 µM | 22.5 | 3.55 µM | 13.6 µM | 4.06 µM | 15.3 µM | 3.87 µM | 14.6 µM
7 | Nc1c2ccccc2nc2ccccc12 | 2.2 µM and 2.91 µM | 6.77 µM and 8.91 µM | 0.626 µM and 3.53 µM | 5.14 µM and 34.3 µM | 1.89 µM and 3.69 µM | 3.92 µM and 13.7 µM | 1.68 µM and 2.21 µM | 11.1 | 2.07 µM and 4.61 µM | – | 1.51 µM and 2.42 µM | 3.45 µM and 6.88 µM | 1.78 µM and 3.46 µM | – | 2.02 µM and 2.57 µM | 5.51 µM and 6.86 µM | 2.16 µM and 3.34 µM | 8 µM and 13.1 µM | 1.77 µM and 1.69 µM | 5.12 µM and 3.5 µM
8 | C/C(=N\NC(N)=O)C(CN1CCOCC1)C(c1ccccc1)c1c(O)c2ccccc2oc1=O (configuration not stated) | – | > 100 µM | – | > 100 µM | – | > 100 µM | – | > 100 | – | > 100 | – | > 100 µM | – | > 100 | – | > 100 µM | – | > 100 µM | – | > 100 µM
9 | COc1cccc(-c2cc(-c3ccc(Nc4nc(Nc5ccc(Cl)cc5)nc(Nc5ccc(Cl)cc5)n4)cc3)nc(N)c2C#N)c1 | 1.73 µM | 3.53 µM | 3.51 µM | > 100 µM | 1.9 µM | 3.98 µM | 1.63 µM | 4.93 | 2.21 µM | 4.05 | 14.6 µM | 37.8 µM | 4.79 µM | 16.3 | 4.58 µM | 26.1 µM | 3.76 µM | > 37.5 µM | 2.22 µM | 6.44 µM
10 | COC1=C(OC)C(=O)c2cc(C)c(=O)c(C)cc2C1=O | – | 24 µM | – | 35.7 µM | – | 31 µM | – | 15.6 | – | 34 | – | 27.7 µM | – | 31.5 | – | 32.6 µM | – | 31 µM | – | > 39 µM
11 | COc1cnc2c(c1)C(=O)c1c-2n(CCCN2CCNCC2)c(=O)c2cc(F)ccc12 | 0.335 µM | 1.63 µM | 0.126 µM | 1.25 µM | 1.52 µM | 3.03 µM | 0.0275 µM | 0.164 | 0.267 µM | 1.43 | 1.26 µM | 3.02 µM | 0.441 µM | 2.08 | 0.0623 µM | 1.15 µM | 0.0841 µM | 1.05 µM | 0.18 µM | 1.32 µM
12 | CCCN1CCCC(c2ccc(Nc3nc(Nc4cc(F)ccc4C(N)=O)c4cc[nH]c4n3)c(OC)c2)C1 (configuration not stated) | 2.92 µM | 6 µM | 2.47 µM | 5.92 µM | 3.49 µM | 6.93 µM | 3.8 µM | 11.1 | 0.622 µM | 4.39 | 3.11 µM | 6.31 µM | 0.862 µM | 5.19 | 0.802 µM | 4.74 µM | 2.57 µM | 5.58 µM | 0.588 µM | 5.49 µM
13 | Cc1cc(C)c(CNC(=O)c2cc(Cl)c3c(c2C)O[C@@](C)(C2CCC(N(C)C)CC2)O3)c(=O)[nH]1 (some centres not stated) | > 100 µM | > 100 µM | > 100 µM | > 100 µM | > 100 µM | > 100 µM | 58.6 µM | > 100 | > 100 µM | > 100 | > 100 µM | > 100 µM | > 100 µM | > 100 | > 100 µM | > 100 µM | 68 µM | > 100 µM | 47.8 µM | > 100 µM

From PubChem BioAssay (NCI)
